Reference: patent US20110251191A1, “USE OF SUBSTITUTED 2, 3-DIHYDROIMIDAZO[1,2-C]QUINAZOLINES FOR THE TREATMENT OF MYELOMA” (BAYER SCHERING PHARMA AKTIENGESELLSCHAFT, priority 2008, published 2011)

Columns and labels:
Assay type in all cases: cell-based
KMS-12-BM = experiment: proliferation assay (CellTiter-Glo), KMS-12-BM; conditions: KMS-12-BM cells, 72-hour drug exposure
Procedure: (§1) In accordance with the invention, the compounds were assessed in a cell-based assay that measures the capacity of the compounds to inhibit tumor cell proliferation following a 72-hour drug exposure. Cell viability is determined using CellTiter-Glo® Luminescent Cell Viability Assay (Promega). Cells were plated at 2000-5000 cells/well (depending on the cell lines) in 100 μL growth medium on 96-well microtiterplate. For each cell line assayed, cells were plated onto a separate plate for determination of Luminescence at t=0 hour and t=72 hour time points. Following overnight incubation at 37° C., Luminescence values for the t=0 samples were determined. Dose plates for the t=72 hour time points were treated with compounds diluted into growth medium. Cells were then incubated for 72 hours at 37° C. Luminescence values for the t=72 hour samples were determined. For data analysis, briefly, t=0 values were subtracted from those determined for the t=72 hour time points, for both the treated and untreated samples. Percent differences in […] between drug-treated and control values were used to determine the percent inhibition of growth.

KMS-12-PE = experiment: proliferation assay (CellTiter-Glo), KMS-12-PE; conditions: Homo sapiens; KMS-12-PE cells, 72-hour drug exposure
Procedure: as §1

L363 = experiment: proliferation assay (CellTiter-Glo), L363; conditions: Homo sapiens, L-363; L363 cells, 72-hour drug exposure
Procedure: as §1

LP-1 = experiment: proliferation assay (CellTiter-Glo), LP-1; conditions: LP-1 cells, 72-hour drug exposure
Procedure: as §1

Molm13 = experiment: proliferation assay (CellTiter-Glo), Molm13; conditions: Homo sapiens, MOLM-13; Molm13 cells, 72-hour drug exposure
Procedure: as §1

Molp2 = experiment: proliferation assay (CellTiter-Glo), Molp2; conditions: MOLP-2; Molp2 cells, 72-hour drug exposure
Procedure: as §1

Molp8 = experiment: proliferation assay (CellTiter-Glo), Molp8; conditions: Homo sapiens, MOLP-8; Molp8 cells, 72-hour drug exposure
Procedure: as §1

RPMI 8226 = experiment: proliferation assay (CellTiter-Glo), RPMI 8226; conditions: Homo sapiens; RPMI 8226 cells, 72-hour drug exposure
Procedure: as §1

OPM2 = experiment: proliferation assay (CellTiter-Glo), OPM2; conditions: Homo sapiens, OPM-2; OPM2 cells, 72-hour drug exposure
Procedure: as §1

[1] = tested on: multiple myeloma cell lines; experiment: proliferation assays with multiple myeloma cell lines (summary); conditions: range over 9 multiple myeloma cell lines, 72-hour drug exposure; read-out: IC50s, proliferation of 9 multiple myeloma tested
Procedure: as §1

COc1c(OCCCN2CCOCC2)ccc2c1N=C(NC(=O)c1cnc(N)nc1)N1CCN=C21 [Compound A, 2-amino-N-[7-methoxy-8-(3-morpholin-4-ylpropoxy)-2,3-dihydroimidazo[1,2-c]quinazolin-5-yl]pyrimidine-5-carboxamide]
IC50 (KMS-12-BM): 3.7 nM
IC50 (KMS-12-PE): 67 nM
IC50 (L363): 8.1 nM
IC50 (LP-1): 3.7 nM
IC50 (Molm13): 69 nM
IC50 (Molp2): 12 nM
IC50 (Molp8): 23 nM
IC50 (RPMI 8226): 48 nM
IC50 (OPM2): 92 nM
IC50 [1]: 3 to 100 nM
